# Test results published in ChEMBL document CHEMBL6177998, “Rational Design of Dual Degraders by Incorporating Molecular Glue Structural Features into PROTAC Degraders” (J Med Chem, 2025).
# Calls of active or inactive are those of the source. No cut-off for these calls is given here.
# How the values were obtained:
# [1] = target: T1, Protein cereblon/Eukaryotic peptide chain release factor GTP-binding subunit ERF3A (Homo sapiens, UniProt Q96SW2+P15170); assay: Molecular glue activity at CRBN/GSPT1 in human 22Rv1 cells assessed as induction of GSPT1 degradation at 0.1 uM incubated for 24 hrs by Western blot analysis relative to control; format: cell-based
# Target sequence in this assay (P15170 whole entry, looked up): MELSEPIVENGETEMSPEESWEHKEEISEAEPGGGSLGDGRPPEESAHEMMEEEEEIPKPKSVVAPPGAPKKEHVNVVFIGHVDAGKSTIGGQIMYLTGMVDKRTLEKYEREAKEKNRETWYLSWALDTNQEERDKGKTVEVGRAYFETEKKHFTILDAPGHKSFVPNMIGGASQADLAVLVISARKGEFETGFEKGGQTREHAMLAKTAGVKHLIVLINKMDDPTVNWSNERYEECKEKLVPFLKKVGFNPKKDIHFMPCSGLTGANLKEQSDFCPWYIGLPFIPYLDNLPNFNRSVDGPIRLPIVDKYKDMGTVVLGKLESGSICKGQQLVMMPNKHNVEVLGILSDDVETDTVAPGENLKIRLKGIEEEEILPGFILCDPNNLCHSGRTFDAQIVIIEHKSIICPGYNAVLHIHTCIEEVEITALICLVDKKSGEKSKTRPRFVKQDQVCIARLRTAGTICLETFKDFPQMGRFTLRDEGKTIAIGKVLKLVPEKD
# Target sequence in this assay (Q96SW2 whole entry, looked up): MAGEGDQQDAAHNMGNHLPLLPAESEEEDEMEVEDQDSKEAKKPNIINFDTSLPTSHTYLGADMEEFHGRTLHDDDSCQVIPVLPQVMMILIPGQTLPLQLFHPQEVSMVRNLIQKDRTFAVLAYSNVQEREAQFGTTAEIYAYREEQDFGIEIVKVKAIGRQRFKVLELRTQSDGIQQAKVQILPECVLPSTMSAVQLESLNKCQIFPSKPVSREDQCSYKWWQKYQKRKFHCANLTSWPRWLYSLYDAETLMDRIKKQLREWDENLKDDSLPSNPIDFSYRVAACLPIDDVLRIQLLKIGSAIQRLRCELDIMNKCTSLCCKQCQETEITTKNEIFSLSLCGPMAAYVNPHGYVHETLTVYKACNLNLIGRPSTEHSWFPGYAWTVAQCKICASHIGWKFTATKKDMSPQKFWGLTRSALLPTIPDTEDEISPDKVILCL
# [2] = target: T1, Protein cereblon/Eukaryotic peptide chain release factor GTP-binding subunit ERF3A; assay: Molecular glue activity at CRBN/GSPT1 in human VCaP cells assessed as induction of GSPT1 degradation incubated for 24 hrs by Western blot analysis; format: cell-based
# [3] = target: T2, Protein cereblon/Androgen receptor (Homo sapiens, UniProt P10275+Q96SW2); assay: PROTAC activity at CRBN/AR in human LNCaP cells assessed as decrease in TMPRSS2 protein level incubated for 24 hrs by Western blot analysis; format: cell-based; details: dose 1-100 nM
# T2 sequence (P10275 whole entry, looked up): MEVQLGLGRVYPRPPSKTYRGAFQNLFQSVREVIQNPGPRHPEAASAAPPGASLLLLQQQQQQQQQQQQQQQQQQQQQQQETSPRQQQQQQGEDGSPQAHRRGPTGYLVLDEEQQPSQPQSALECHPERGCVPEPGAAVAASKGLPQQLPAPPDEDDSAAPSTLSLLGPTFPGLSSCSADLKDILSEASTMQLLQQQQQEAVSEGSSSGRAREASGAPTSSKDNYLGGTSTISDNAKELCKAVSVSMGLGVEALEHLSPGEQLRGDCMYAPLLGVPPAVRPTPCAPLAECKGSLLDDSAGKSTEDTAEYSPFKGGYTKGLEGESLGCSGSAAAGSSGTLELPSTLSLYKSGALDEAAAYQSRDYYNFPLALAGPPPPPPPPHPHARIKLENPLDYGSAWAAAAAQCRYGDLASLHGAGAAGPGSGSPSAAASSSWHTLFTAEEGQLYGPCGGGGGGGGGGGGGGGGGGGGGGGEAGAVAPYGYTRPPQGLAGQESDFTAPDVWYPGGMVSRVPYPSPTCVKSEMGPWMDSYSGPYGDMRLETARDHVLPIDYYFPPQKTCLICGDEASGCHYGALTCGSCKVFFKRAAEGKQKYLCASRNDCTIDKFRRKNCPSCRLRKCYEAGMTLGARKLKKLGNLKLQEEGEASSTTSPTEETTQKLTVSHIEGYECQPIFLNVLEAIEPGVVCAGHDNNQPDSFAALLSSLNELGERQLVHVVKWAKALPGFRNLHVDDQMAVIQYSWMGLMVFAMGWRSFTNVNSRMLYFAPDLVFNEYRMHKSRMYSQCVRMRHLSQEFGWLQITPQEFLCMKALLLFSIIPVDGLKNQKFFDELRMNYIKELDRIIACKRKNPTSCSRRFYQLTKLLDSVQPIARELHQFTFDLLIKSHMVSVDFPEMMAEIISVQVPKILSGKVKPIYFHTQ
# T2 sequence (Q96SW2 whole entry, looked up): as the sequence (Q96SW2 whole entry, looked up) above
# [4] = target: T2, Protein cereblon/Androgen receptor; assay: PROTAC activity at CRBN/AR in human 22Rv1 cells assessed as induction of AR degradation at 50 nM preincubated with MG132 followed by compound addition and measured after 12 hrs by Western blot analysis; format: cell-based
# [5] = target: T1, Protein cereblon/Eukaryotic peptide chain release factor GTP-binding subunit ERF3A; assay: Molecular glue activity at CRBN/GSPT1 in human 22Rv1 cells assessed as increase in GSPT1 polyubiquitination at 30 nM preincubated with compound for 12 hrs followed by MG132 addition and measured after 12 hrs by immunoprecipitation based Western blot analysis; format: cell-based; details: time 24.0 hrs
# Target sequence in this assay (P15170 whole entry, looked up): as the sequence (P15170 whole entry, looked up) above
# Target sequence in this assay (Q96SW2 whole entry, looked up): as the sequence (Q96SW2 whole entry, looked up) above
# [6] = target: T2, Protein cereblon/Androgen receptor; assay: PROTAC activity at CRBN/AR in human VCaP cells assessed as induction of AR degradation at 20 nM by Western blot analysis; format: cell-based; details: time 1-36 hrs
# [7] = target: T2, Protein cereblon/Androgen receptor; assay: In vivo PROTAC activity at CRBN/AR in male NOD SCID mouse model xenografted with human LNCaP cells assessed as reduction in androgen receptor level in tumor at 20 mg/kg, po administered daily for 26 days by Western blot analysis; format: functional, organism-based; details: time 26.0 day
# [8] = target: T2, Protein cereblon/Androgen receptor; assay: PROTAC activity at CRBN/AR in human 22Rv1 cells assessed as decrease in PSA protein level incubated for 24 hrs by Western blot analysis; format: cell-based; details: dose 1-10 nM
# [9] = target: T2, Protein cereblon/Androgen receptor; assay: PROTAC activity at CRBN/AR in human LNCaP cells assessed as induction of AR degradation at 20 nM by Western blot analysis; format: cell-based; details: time 1-36 hrs
# CWR22R [10] = assay: Downregulation of MT-ATP8 gene expression in human 22Rv1 cells at 3 nM incubated for 24 hrs by Volcano plot analysis; format: functional, cell-based
# [11] = target: T2, Protein cereblon/Androgen receptor; assay: PROTAC activity at CRBN/AR in human VCaP cells assessed as induction of AR degradation at 50 nM preincubated with MLN4924 followed by compound addition and measured after 12 hrs by Western blot analysis; format: cell-based
# [12] = target: T1, Protein cereblon/Eukaryotic peptide chain release factor GTP-binding subunit ERF3A; assay: Molecular glue activity at CRBN/GSPT1 in human 22Rv1 cells assessed as induction of GSPT1 degradation at 20 uM preincubated with EPI-002 for 4 hrs followed by compound addition and measured after 36 hrs by Western blot analysis; format: cell-based
# Target sequence in this assay (P15170 whole entry, looked up): as the sequence (P15170 whole entry, looked up) above
# Target sequence in this assay (Q96SW2 whole entry, looked up): as the sequence (Q96SW2 whole entry, looked up) above
# [13] = target: T2, Protein cereblon/Androgen receptor; assay: PROTAC activity at CRBN/AR in human 22Rv1 cells assessed as decrease in FKBP51 protein level incubated for 24 hrs by Western blot analysis; format: cell-based; details: dose 1-10 nM
# LNCaP = assay: Induction of apoptosis in human LNCaP cells assessed as increase in cleaved PARP expression incubated for 24 hrs by Western blot analysis; format: functional, cell-based; details: dose 1-100 nM
# [14] = target: T2, Protein cereblon/Androgen receptor; assay: PROTAC activity at CRBN/AR in human Enzalutamide-resistant VCaP cells assessed as induction of androgen receptor degradation at 1 to 300 nM by Western blot analysis; format: cell-based; details: dose 1-300 nM
# [15] = Selectivity ratio of IC50 for antiproliferative activity against AR-independent human DU-145 cells assessed as cell growth inhibition to IC50 for antiproliferative activity against AR-dependent human VCaP cells assessed as cell growth inhibition; format: functional
# [16] = target: Protein cereblon/Sal-like protein 4 (Homo sapiens) (UniProt Q96SW2+Q9UJQ4); assay: Molecular glue activity at CRBN/SALL4 in human 22Rv1 cells assessed as induction of SALL4 degradation at 1 uM incubated for 6 hrs by Western blot analysis; format: cell-based
# Protein cereblon/Sal-like protein 4 (Homo sapiens), sequence (Q96SW2 whole entry, looked up): as above
# Protein cereblon/Sal-like protein 4 (Homo sapiens), sequence (Q9UJQ4 whole entry, looked up): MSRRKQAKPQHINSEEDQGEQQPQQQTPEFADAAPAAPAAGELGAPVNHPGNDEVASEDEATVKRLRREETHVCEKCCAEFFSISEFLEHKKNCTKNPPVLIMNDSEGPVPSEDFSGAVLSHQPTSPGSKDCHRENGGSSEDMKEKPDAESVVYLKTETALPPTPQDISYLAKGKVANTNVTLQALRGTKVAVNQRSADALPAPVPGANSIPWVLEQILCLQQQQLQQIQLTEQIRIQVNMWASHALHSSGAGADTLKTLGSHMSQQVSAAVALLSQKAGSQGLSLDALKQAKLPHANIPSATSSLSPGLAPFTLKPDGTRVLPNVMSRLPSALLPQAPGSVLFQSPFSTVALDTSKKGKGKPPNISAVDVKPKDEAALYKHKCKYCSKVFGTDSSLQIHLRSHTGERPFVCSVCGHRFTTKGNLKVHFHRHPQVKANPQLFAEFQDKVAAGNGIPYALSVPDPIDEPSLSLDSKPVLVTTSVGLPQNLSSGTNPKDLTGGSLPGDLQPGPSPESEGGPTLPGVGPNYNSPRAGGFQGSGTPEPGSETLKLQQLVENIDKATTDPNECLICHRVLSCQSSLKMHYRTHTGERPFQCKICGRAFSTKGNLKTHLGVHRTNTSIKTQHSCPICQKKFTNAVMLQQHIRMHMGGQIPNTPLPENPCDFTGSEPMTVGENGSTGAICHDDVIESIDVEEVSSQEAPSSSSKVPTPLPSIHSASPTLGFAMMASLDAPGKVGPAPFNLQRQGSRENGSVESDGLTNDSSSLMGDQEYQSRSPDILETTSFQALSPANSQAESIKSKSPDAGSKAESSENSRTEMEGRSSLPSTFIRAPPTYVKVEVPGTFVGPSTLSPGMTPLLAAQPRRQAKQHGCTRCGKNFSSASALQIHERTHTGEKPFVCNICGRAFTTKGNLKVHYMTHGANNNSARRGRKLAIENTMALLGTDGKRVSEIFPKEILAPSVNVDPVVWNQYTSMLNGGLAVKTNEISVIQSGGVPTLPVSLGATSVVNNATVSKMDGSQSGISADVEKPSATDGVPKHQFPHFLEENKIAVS
# [17] = target: T2, Protein cereblon/Androgen receptor; assay: PROTAC activity at CRBN/AR in human 22Rv1 cells assessed as induction of AR degradation at 50 uM preincubated with thalidomide followed by compound addition and measured after 12 hrs by Western blot analysis; format: cell-based
# CWR22R [18] = assay: Antiproliferative activity against AR-dependent human 22Rv1 cells assessed as cell growth inhibition incubated for 72 hrs by Celltiter-lumi luminescent cell viability assay; format: functional, cell-based; details: 22Rv1, 72 h
# [19] = target: T1, Protein cereblon/Eukaryotic peptide chain release factor GTP-binding subunit ERF3A; assay: Molecular glue activity at CRBN/GSPT1 in human Enzalutamide-resistant VCaP cells assessed as induction of GSPT1 degradation at 1 to 300 nM by Western blot analysis; format: cell-based; details: dose 1-300 nM
# Target sequence in this assay (P15170 whole entry, looked up): as the sequence (P15170 whole entry, looked up) above
# Target sequence in this assay (Q96SW2 whole entry, looked up): as the sequence (Q96SW2 whole entry, looked up) above
# [20] = system: Protein cereblon/Androgen receptor (Homo sapiens), P10275+Q96SW2 [UNDEFINED MUTATION]; assay: Induction of AR-V7 degradation in human 22Rv1 cells transfected with CRBN siRNA at 30 nM incubated for 24 hrs by Western blot analysis; format: cell-based
# Protein cereblon/Androgen receptor (Homo sapiens), P10275+Q96SW2 [UNDEFINED MUTATION], sequence (P10275 whole entry, looked up, change not shown, canonical isoform): as the sequence (P10275 whole entry, looked up) above
# Protein cereblon/Androgen receptor (Homo sapiens), P10275+Q96SW2 [UNDEFINED MUTATION], sequence (Q96SW2 whole entry, looked up, change not shown, canonical isoform): as the sequence (Q96SW2 whole entry, looked up) above
# [21] = system: Protein cereblon/Androgen receptor (Homo sapiens), P10275+Q96SW2 [UNDEFINED MUTATION]; assay: PROTAC activity at CRBN/Androgen receptor splice variant 7 in human 22Rv1 cells assessed as induction of AR-V7 degradation at 20 nM incubated for 1 hrs by Western blot analysis (reference value: 0%); format: cell-based
# [22] = target: T2, Protein cereblon/Androgen receptor; assay: PROTAC activity at CRBN/AR in human 22Rv1 cells assessed as decrease in PSA mRNA level at 1 to 3 nM incubated for 24 hrs by qRT-PCR analysis; format: cell-based; details: dose 1-3 nM
# Androgen receptor = Androgen receptor (Homo sapiens, UniProt P10275, F877L); assay: Inhibition of AR F876L mutant (unknown origin) transcriptional activity transfected in HEK293T cells co-transfected with PSA-luciferase reporter and pRL-TK assessed as reduction in PSA-luciferase activity incubated for 24 hrs by luminescence based microplate reader analysis; format: cell-based
# Androgen receptor, sequence (P10275 whole entry F877L): as the sequence (P10275 whole entry, looked up) above, with F877L counted along it
# [23] = target: T2, Protein cereblon/Androgen receptor; assay: PROTAC activity at CRBN/AR in human 22Rv1 cells assessed as induction of AR degradation at 20 nM incubated for 12 hrs by Western blot analysis (reference value: 0 %); format: cell-based
# [24] = system: Protein cereblon/Androgen receptor (Homo sapiens), P10275+Q96SW2 [UNDEFINED MUTATION]; assay: PROTAC activity at CRBN/Androgen receptor splice variant 7 in human VCaP cells assessed as induction of AR-V7 degradation at 50 nM preincubated with MLN4924 followed by compound addition and measured after 12 hrs by Western blot analysis; format: cell-based
# [25] = target: T1, Protein cereblon/Eukaryotic peptide chain release factor GTP-binding subunit ERF3A; assay: Molecular glue activity at CRBN/GSPT1 in human 22Rv1 cells assessed as induction of GSPT1 degradation at 20 nM incubated for 12 hrs by Western blot analysis (reference value: 0 %); format: cell-based
# Target sequence in this assay (P15170 whole entry, looked up): as the sequence (P15170 whole entry, looked up) above
# Target sequence in this assay (Q96SW2 whole entry, looked up): as the sequence (Q96SW2 whole entry, looked up) above
# [26] = target: T2, Protein cereblon/Androgen receptor; assay: PROTAC activity at CRBN/AR in human VCaP cells assessed as induction of AR degradation at 50 nM preincubated with MG132 followed by compound addition and measured after 12 hrs by Western blot analysis; format: cell-based
# [27] = target: T2, Protein cereblon/Androgen receptor; assay: PROTAC activity at CRBN/AR in human LNCaP cells assessed as decrease in PSA protein level incubated for 24 hrs by Western blot analysis; format: cell-based; details: dose 1-100 nM
# [28] = target: T2, Protein cereblon/Androgen receptor; assay: PROTAC activity at CRBN/AR in human VCaP cells assessed as induction of AR degradation at 0.01 uM incubated for 24 hrs by Western blot analysis relative to control; format: cell-based
# CWR22R [29] = assay: Induction of apoptosis in human 22Rv1 cells assessed as increase in cleaved PARP expression incubated for 24 hrs by Western blot analysis; format: functional, cell-based; details: dose 1-30 nM
compound,measurement,setting,value
COc1ccc(C(C)(C)c2cc(Cl)c(OCC3CCN(C(=O)CCCCCNc4ccc5c(c4)C(=O)N(C4CCC(=O)NC4=O)C5=O)CC3)c(C#N)c2)cc1 (configuration not stated),Activity,[1],93.4%
same,Activity,[2],Dose-dependent-effect
same,DC50,[2],0.6 nM
same,Activity,[3],Dose-dependent-effect
same,Activity,[4],inactive
same,Activity,[5],Active
same,Activity,[6],Time-dependent-effect
same,Activity,[7],Active
same,Activity,[8],Dose-dependent-effect
same,Activity,[9],Time-dependent-effect
same,Activity,CWR22R [10],Active
same,Activity,[11],inactive
same,Activity,[12],Active
same,Activity,[13],Dose-dependent-effect
same,Activity,LNCaP,Dose-dependent-effect
same,Activity,[14],Active
same,Ratio IC50,[15],588
same,Activity,[16],inactive
same,Activity,[17],inactive
same,IC50,CWR22R [18],1.1 nM
same,Activity,[19],Active
same,Activity,[20],inactive
same,Activity,[21],13.3%
same,Activity,[22],Active
same,IC50,Androgen receptor,48.6 nM
same,Activity,[23],56.1%
same,Activity,[24],inactive
same,Activity,[25],98.7%
same,Activity,[26],inactive
same,Activity,[27],Dose-dependent-effect
same,Activity,[28],89.4%
same,Activity,CWR22R [29],Dose-dependent-effect
